The source of these data is patent US7008954B1, “Th2 differentiation inhibitors” (Shionogi & Co., Ltd., priority 1999, dated 2006).

In test [1] the test system is differentiation from Th0 cells to Th2 cells. The test can be described thus: Inhibitory effect on induction of differentiation from Th0 cells to Th2 cells (DNP-As immunized mice, popliteal lymph node, intracellular cytokine FACS). The test is classed as in vivo, BALB/c mice. Particulars: for increase in the % Th2 / increase in the Th2/Th1 ratio: BALB/c mice immunized with DNP-As; for % Th1 / % Th2 / Th2/Th1: BALB/c mice immunized with DNP-As/Alum, popliteal lymph node 6 days after immunization, n = 3. The method, then: Experiment 1 Inhibitory Effect on Induction of Differentiation from Th0 Cells to Th2 Cells
In an experiment to induce the differentiation from Th0 cells to Th2 cells, 9 to 11 week-old female mice of BALB/cCrSlc purchased from Japan SLC, Inc. or of BALB/cAnNCrj purchased from Charles River Japan, Inc. were used.
In an experiment to induce the differentiation from Th0 cells to Th2 cells, a DNP-As (dinitrophenylated Ascaris protein (porcine ascarid extract protein)) was used as an antigen, 10 μg of which and 250 μg of Alum (aluminum hydroxide adjuvant) in physiological saline in the final volume of 50 μl was injected into the soles of the both hind legs of each mouse, whereby effecting immunization. In a negative control group, each animal was treated similarly by an injection of 50 μl of physiological saline. 6 Days after injection, two popliteal lymph nodes were removed from right and left knees, and passed through a metal mesh (200 mesh size) in Hanks' balanced salt solution (HBSS) to prepare a cell suspension. In the group treated with physiological saline, preparations from two animals were combined and subjected to the experiment because of a small cell number. A compound according to the invention was suspended in 0.5% methylcellulose (MC) and 0.1 ml per 20 g mouse was given orally every day over a period from the day of immunization through the 5th day. The immunized vehicle control group and the negative control group were treated with the same volume of 0.5% MC.
Cells prepared from popliteal lymph nodes of these mice were suspended at 1−2×10^6 cells/ml (1–2 ml) in an RPMI 1640 medium (containing 10% fetal bovine serum—FBS and 50 μM 2-mercaptoethanol) and supplemented with PMA (Phorbol 12-Myristate 13-Acetate) at the final concentration of 50 ng/ml and 250 ng/ml A23187 (Ca ionophore) and then incubated at 37° C. in the presence of 5% CO2. After incubating for 4 hours, Brefeldin A was added at the final concentration of 10 μg/ml and the mixture was incubated further for 2 hours. The cells were recovered and washed twice with a staining buffer (PBS containing 1% FBS and 0.1% sodium azide) and suspended in 100 μl of the staining buffer containing 5 μg/ml of Fc Block (rat anti-mouse CD 16/CD32 purified monoclonal antibody, Pharmingen) and incubated on ice for 5 minutes to block the non-specific adsorption of the labeled antibody, and then combined with an equal volume of a Cy-Chrome-labelled rat anti-mouse CD4 monoclonal antibody (Pharmingen) which had been 200-fold diluted with the staining buffer and incubated on ice for 30 minutes. After washing three times with the staining buffer, the cells were suspended in PBS and combined with an equal volume of a fixation solution (4% p-formaldehyde) and incubated at 4° C. overnight, whereby effecting the fixation. The fixed cells thus obtained were washed twice with the staining buffer and suspended in a permeabilazation buffer (PBS containing 1% FBS, 0.5% saponin and 0.1% sodium azide) and incubated on ice for 10 minutes, and then each cell sample was recovered as being divided into two equal portions. Each portion was suspended in 100 μl of the permeabilazation buffer containing 5 μg/ml Fc Block and incubated on ice for 5 minutes to block the non-specific adsorption of the labeled antibody into the cells. One portion was combined with each 100 μl of an FITC-labelled rat anti-mouse IFNγ monoclonal antibody (Pharmingen) and a PE-labeled rat anti-mouse IL-4 monoclonal antibody (Pharmingen) each had been 50-fold diluted with the permeabilazation buffer and incubated on ice for 30 minutes. The other portion, serving as a control representing the non-specific adsorption of the labeled antibody, was combined with each 100 μl of each control antibody at the same concentration, i.e., an FITC-labelled rat IgG1κ purified antibody (Pharmingen) and a PE-labeled rat IgG1κ purified antibody (Pharmingen) to effect the similar staining. […]

The test system of test [2] is differentiation from Th0 cells to Th1 cells. The test can be described thus: Effect on induction of differentiation from Th0 cells to Th1 cells (mice immunized with non-viable Mycobacterium tuberculosis, popliteal lymph node, intracellular cytokine FACS). The test is classed as in vivo, C57BL/6 mice. The following applies: for % Th1 / % Th2: C57BL/6N mice immunized with non-viable Mycobacterium tuberculosis, popliteal lymph node 6 days after immunization, n = 3; for effect on the increase in the % Th1: CD4 positive T cells, popliteal lymph node, C57BL/6 mice immunized with non-viable Mycobacterium tuberculosis. The procedure: In an experiment to induce the differentiation from Th0 cells to Th1 cells, 8 week-old female mice of C57BL/6NCrj purchased from Charles River Japan, Inc. were used.
On the other hand, in an experiment to induce the differentiation from Th0 cells to Th1 cells, a non-viable Mycobacterium tuberculosis H37RA (DIFCO) was suspended in physiological saline, and 125 μg/50 μl was used for immunization as described above. In the group treated with physiological saline, the preparations from 4 animals were combined and subjected to the experiment.
Cells prepared from popliteal lymph nodes of these mice were suspended at 1−2×10^6 cells/ml (1–2 ml) in an RPMI 1640 medium (containing 10% fetal bovine serum—FBS and 50 μM 2-mercaptoethanol) and supplemented with PMA (Phorbol 12-Myristate 13-Acetate) at the final concentration of 50 ng/ml and 250 ng/ml A23187 (Ca ionophore) and then incubated at 37° C. in the presence of 5% CO2. After incubating for 4 hours, Brefeldin A was added at the final concentration of 10 μg/ml and the mixture was incubated further for 2 hours. The cells were recovered and washed twice with a staining buffer (PBS containing 1% FBS and 0.1% sodium azide) and suspended in 100 μl of the staining buffer containing 5 μg/ml of Fc Block (rat anti-mouse CD 16/CD32 purified monoclonal antibody, Pharmingen) and incubated on ice for 5 minutes to block the non-specific adsorption of the labeled antibody, and then combined with an equal volume of a Cy-Chrome-labelled rat anti-mouse CD4 monoclonal antibody (Pharmingen) which had been 200-fold diluted with the staining buffer and incubated on ice for 30 minutes. After washing three times with the staining buffer, the cells were suspended in PBS and combined with an equal volume of a fixation solution (4% p-formaldehyde) and incubated at 4° C. overnight, whereby effecting the fixation. The fixed cells thus obtained were washed twice with the staining buffer and suspended in a permeabilazation buffer (PBS containing 1% FBS, 0.5% saponin and 0.1% sodium azide) and incubated on ice for 10 minutes, and then each cell sample was recovered as being divided into two equal portions. Each portion was suspended in 100 μl of the permeabilazation buffer containing 5 μg/ml Fc Block and incubated on ice for 5 minutes to block the non-specific adsorption of the labeled antibody into the cells. One portion was combined with each 100 μl of an FITC-labelled rat anti-mouse IFNγ monoclonal antibody (Pharmingen) and a PE-labeled rat anti-mouse IL-4 monoclonal antibody (Pharmingen) each had been 50-fold diluted with the permeabilazation buffer and incubated on ice for 30 minutes. The other portion, serving as a control representing the non-specific adsorption of the labeled antibody, was combined with each 100 μl of each control antibody at the same concentration, i.e., an FITC-labelled rat IgG1κ purified antibody (Pharmingen) and a PE-labeled rat IgG1κ purified antibody (Pharmingen) to effect the similar staining. After washing three times with the cell membrane permeation buffer and twice with the staining buffer, the cells were suspended in 500 μl of the staining buffer and transferred through a nylon mesh into a FACS analysis tube.
The significant difference was analyzed by Dunnett multiple comparison test and Student t test.

[3] abbreviates: 40 mg/kg orally for consecutive 6 days after immunization, CD4 positive T cells, popliteal lymph node.
The mark [4] stands for this setting: 40 mg/kg orally daily for 6 days.
[5] abbreviates: 2.5 mg/kg orally daily for 6 days.
The mark [6] stands for this setting: 10 mg/kg orally daily for 6 days.
Setting [7] is: 10 mg/kg orally for consecutive 6 days after immunization.

Turning to `COc1c(C)c(-c2ccc(NCC=C(C)C)cc2)c(C)c(C)c1-c1ccc(OCC(F)(F)F)nc1` [Compound I-90], in test [1] (setting [3]), the “increase in the % Th2” value is listed as “significantly inhibited” and the “increase in the Th2/Th1 ratio” value is listed as “significantly inhibited”. Moreover, in test [1] (setting [4]), the “% Th1” value stood at 0.40 ± 0.02%, the “% Th2” value came to 0.08 ± 0.03 % and the Th2/Th1 was determined as 0.22 ± 0.09.

On to `CC(C)=CCNc1ccc(-c2cc(C)c(-c3cnc(OCC=C(C)C)nc3)cc2C)c(C)c1` [Compound I-132], for which, in test [1] (setting [3]), the “increase in the % Th2” value was “significantly inhibited” and the “increase in the Th2/Th1 ratio” value was “significantly inhibited”. For the same compound, in test [1] (setting [4]), the “% Th1” value is reported as 0.46 ± 0.07%, the “% Th2” value turned out to be 0.05 ± 0.02 % and the Th2/Th1 stood at 0.12 ± 0.04.

As to `CC(C)=CCNc1ccc(-c2cc(C)c(-c3ccc(OCC=C(C)C)nc3)cc2C)c(F)c1` [Compound I-6], the “% Th1” value came to 1.03 ± 0.10% in test [2] (40 mg/kg), 0.70 ± 0.02% in test [1] (setting [5]), 0.54 ± 0.05% in test [1] (setting [6]) and 0.66 ± 0.02% in test [1] (setting [4]). Besides, the “% Th2” value in test [2] (40 mg/kg) was determined as 0.03 ± 0.02%; in test [1] (setting [5]) it was 1.41 ± 0.10%; in test [1] (setting [6]), 0.15 ± 0.01 %; in test [1] (setting [4]), 0.03 ± 0.03 %. In addition, in test [2], the “effect on the increase in the % Th1” value is “no effect”. In test [1] (10 mg/kg or higher), the “increase in the % Th2” value is given as “significantly inhibited”. For the same compound, in test [1] (10 mg/kg or higher), the “increase in the Th2/Th1 ratio” value is on record as “significantly inhibited”. Besides, the figures for the Th2/Th1 in test [1] (setting [5]), in test [1] (setting [6]) and in test [1] (setting [4]) were 2.03 ± 0.20, 0.29 ± 0.02 and 0.04 ± 0.05, respectively.

For `CC(C)=CCNc1ccc(-c2cc(C)c(-c3cnc(OCC=C(C)C)nc3)cc2C)c(F)c1` [Compound I-55], in test [1] (setting [3]), the “increase in the % Th2” value was “significantly inhibited” and the “increase in the Th2/Th1 ratio” value is on record as “significantly inhibited”. In test [1] (setting [4]), the “% Th1” value was found to be 0.53 ± 0.05%, the “% Th2” value is 0.05 ± 0.02 % and the Th2/Th1 came to 0.09 ± 0.03.

For the compound `COc1c(C)c(-c2ccc(NCC=C(C)C)c(F)c2)c(OC)c(C)c1-c1ccc(NCC=C(C)C)nc1` [Compound I-102], in test [2] (40 mg/kg), the “% Th1” value came to 0.82 ± 0.16% and the “% Th2” value was 0.07 ± 0.04%. In addition, in test [2], the “effect on the increase in the % Th1” value is “no effect”. Moreover, in test [1] (setting [3]), the “increase in the % Th2” value is given as “significantly inhibited” and the “increase in the Th2/Th1 ratio” value was “significantly inhibited”. Moreover, in test [1] (setting [4]), the “% Th1” value amounted to 0.34 ± 0.09%, the “% Th2” value is on record as −0.01 ± 0.01 % and the Th2/Th1 is −0.05 ± 0.06.

For the compound `COc1c(C)c(-c2ccc(OCC(C)C)c(O)c2)c(C)c(C)c1-c1ccc(NCC=C(C)C)cc1` [Compound I-133], in test [1] (setting [3]), the “increase in the % Th2” value was “significantly inhibited” and the “increase in the Th2/Th1 ratio” value is on record as “significantly inhibited”. Moreover, in test [1] (setting [4]), the “% Th1” value worked out at 0.45 ± 0.03%, the “% Th2” value is reported as 0.20 ± 0.05 % and the Th2/Th1 was 0.45 ± 0.09.

In the case of `COc1c(C)c(-c2ccc(OCC=C(C)C)c(F)c2)c(C)c(C)c1-c1ccc(NCC=C(C)C)cc1` [Compound I-89], in test [2] (10 mg/kg), the “% Th1” value came to 0.70 ± 0.20% and the “% Th2” value is recorded as 0.02 ± 0.06%. For the same compound, in test [2], the “effect on the increase in the % Th1” value was “no effect”. Besides, in test [1] (setting [7]), the “increase in the % Th2” value was “significantly inhibited” and the “increase in the Th2/Th1 ratio” value is “significantly inhibited”. Besides, in test [1] (setting [6]), the “% Th1” value was 0.23 ± 0.02%, the “% Th2” value is recorded as −0.04 ± 0.00 % and the Th2/Th1 is on record as −0.19 ± 0.01.

`COc1c(C)c(-c2ccc(NCC=C(C)C)cc2)c(C)c(C)c1-c1ccc(OCC=C(C)C)c(F)c1` [Compound I-80]: in test [2] (40 mg/kg), the “% Th1” value is 0.93 ± 0.11% and the “% Th2” value is recorded as 0.02 ± 0.04%. Moreover, the “effect on the increase in the % Th1” value in test [2] is “no effect”. In test [1] (setting [3]), the “increase in the % Th2” value was “significantly inhibited” and the “increase in the Th2/Th1 ratio” value is recorded as “significantly inhibited”. In test [1] (setting [4]), the “% Th1” value was 0.29 ± 0.03%, the “% Th2” value was determined as 0.07 ± 0.03 % and the Th2/Th1 is recorded as 0.27 ± 0.12.
